Like-named read-outs stand apart in the source and are kept apart here.
Experiments:
H82 cells = test: cells; assay type: cell-based; settings: Homo sapiens
Method in brief: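 H82 cells in RPMI1640 + 10% FBS exposed to compound (0.1% DMSO final) for 6 days at 37 °C, 5% CO2. Viability read by CellTiter-Glo ATP luminescence, normalised to DMSO and medium controls; IC50 from nonlinear regression of the dose–survival curve.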

AURKA = molecular target: T1, AURKA (Homo sapiens, UniProt O14965); assay type: cell-based
T1 construct: endogenous in cells; host or cells: Jurkat cells
T1 sequence (O14965 1-403): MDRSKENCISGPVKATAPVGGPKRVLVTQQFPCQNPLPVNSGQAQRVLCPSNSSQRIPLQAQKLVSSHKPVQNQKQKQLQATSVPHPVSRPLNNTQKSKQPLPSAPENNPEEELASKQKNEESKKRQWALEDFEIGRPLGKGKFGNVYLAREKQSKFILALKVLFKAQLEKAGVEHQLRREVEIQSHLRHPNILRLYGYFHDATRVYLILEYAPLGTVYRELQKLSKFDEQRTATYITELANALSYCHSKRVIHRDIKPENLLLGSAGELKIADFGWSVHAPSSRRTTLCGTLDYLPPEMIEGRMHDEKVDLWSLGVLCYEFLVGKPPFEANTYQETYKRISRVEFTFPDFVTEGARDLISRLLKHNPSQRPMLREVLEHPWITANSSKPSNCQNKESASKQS
Method in brief: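 Jurkat cells seeded at 1×10^6 cells/500 µL and treated with compound; lysates run on SDS-PAGE, blotted to nitrocellulose and probed overnight at 4°C for AURKA. Chemiluminescent or fluorescent band intensity fitted to a curve to give DC50 for protein degradation.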

[1] = NCI-H82, H82 cells, 4000 cells/well, CellTiter-Glo, read-out: IC50 in H82 Cells
[2] = 100 nM compound, Jurkat cells, 24 h, Table 2
[3] = 1 µM compound, Jurkat cells, 24 h, Table 2
[4] = NCI-H82, read-out: IC50 in H82 Cells

SMILES	IC50 (H82 cells; [1])	Percentage of AURKA Degradation Induced by 100 nM Compound in Jurkat Cells (AURKA; [2])	Percentage of AURKA Degradation Induced by 1 µM Compound in Jurkat Cells (AURKA; [3])	IC50 (H82 cells; [4])	Percentage of AURKA Degradation Induced by 100 nM Compound in Jurkat Cells (AURKA)	Percentage of AURKA Degradation Induced by 1 µM Compound in Jurkat Cells (AURKA)
O=C1CCN(c2ccc(C3CCN(CC4CN(c5ccc(Nc6ncc7c(n6)-c6ccc(Cl)cc6C(c6c(F)cccc6F)=NC7)cc5)C4)CC3)nc2)C(=O)N1 [Compound A249]	< 1000 nM	+++ (Degradation > 70%)	+++ (Degradation > 70%)			
O=C1CCN(c2ccc(N3CCC(CN4CCN(C56CC(Nc7ncc8c(n7)-c7ccc(Cl)cc7C(c7c(F)cccc7F)=NC8)(C5)C6)C(=O)C4)CC3)nc2)C(=O)N1 [Compound A250]	< 1000 nM	+++ (Degradation > 70%)	+++ (Degradation > 70%)			
N#CC1CN(C2CCN(c3ccc(N4CCC(=O)NC4=O)cn3)CC2)CCN1c1ccc(Nc2ncc3c(n2)-c2ccc(Cl)cc2C(c2c(F)cccc2F)=NC3)cc1 (stereo not drawn) [Compound A251]	< 1000 nM	+++ (Degradation > 70%)	+++ (Degradation > 70%)			
O=C1CCN(c2ccc(N3CCN(C4(C5CN(c6ccc(Nc7ncc8c(n7)-c7ccc(Cl)cc7C(c7c(F)cccc7F)=NC8)cc6)C5)CC4)CC3)nc2)C(=O)N1 [Compound A252]	< 1000 nM	+++ (Degradation > 70%)	+++ (Degradation > 70%)			
COc1cccc(F)c1C1=NCc2cnc(Nc3ccc(N4CC(CN5CCN(c6ccc(N7CCC(=O)NC7=O)cn6)CC5)C4)cc3)nc2-c2ccc(Cl)cc21 [Compound A253]	< 1000 nM	+++ (Degradation > 70%)	+++ (Degradation > 70%)			
O=C1CCN(c2ccc(N3CCC(OC4CN(c5ccc(Nc6ncc7c(n6)-c6ccc(Cl)cc6C(c6c(F)cccc6F)=NC7)cc5)C4)CC3)nc2)C(=O)N1 [Compound A254]	< 1000 nM	+++ (Degradation > 70%)	++ (30% < Degradation ≤ 70%)			
O=C1CCN(c2ccc(N3CCN(C(=O)N4CCN(C56CC(Nc7ncc8c(n7)-c7ccc(Cl)cc7C(c7c(F)cccc7F)=NC8)(C5)C6)CC4)CC3)nc2)C(=O)N1 [Compound A255]	< 1000 nM	++ (30% < Degradation ≤ 70%)	++ (30% < Degradation ≤ 70%)			
COc1cc(Nc2ncc3c(n2)-c2ccc(Cl)cc2C(c2c(F)cccc2OC)=NC3)ccc1N1CCN(C2CCN(c3ccc(N4CCC(=O)NC4=O)cn3)CC2)CC1 [Compound A256]	< 1000 nM	+++ (Degradation > 70%)	+++ (Degradation > 70%)			
O=C1CCN(c2ccc(N3CCN(C(=O)N4CCN(c5ccc(Nc6ncc7c(n6)-c6ccc(Cl)cc6C(c6c(F)cccc6F)=NC7)cc5)CC4)CC3)nc2)C(=O)N1 [Compound A258]	< 1000 nM	+++ (Degradation > 70%)	+++ (Degradation > 70%)			
O=C1CCN(c2ccc(N3CCN(CC4(F)CN(c5ccc(Nc6ncc7c(n6)-c6ccc(Cl)cc6C(c6c(F)cccc6F)=NC7)cc5)C4)CC3)nc2)C(=O)N1 [Compound A259]	< 1000 nM	+++ (Degradation > 70%)	+++ (Degradation > 70%)			
COc1cc(Nc2ncc3c(n2)-c2ccc(Cl)cc2C(c2c(F)cccc2OC)=NC3)ccc1N1CC(CN2CCN(c3ccc(N4CCC(=O)NC4=O)cn3)CC2)C1 [Compound A261]	< 1000 nM	+++ (Degradation > 70%)	+++ (Degradation > 70%)			
O=C1CCN(c2ccc(N3CCC(N4CCN(c5ccc(Nc6ncc7c(n6)-c6ccc(Cl)cc6C(c6c(F)cccc6F)=NC7)cc5)CC4)C(F)(F)C3)nc2)C(=O)N1 (stereo not drawn) [Compound A263]		+++ (Degradation > 70%)	+++ (Degradation > 70%)	< 1000 nM		
O=C1CCN(c2ccc(N3CCC(O)(CN4CCN(c5ccc(Nc6ncc7c(n6)-c6ccc(Cl)cc6C(c6c(F)cccc6F)=NC7)cc5)CC4)CC3)nc2)C(=O)N1 [Compound A264]	< 1000 nM	+++ (Degradation > 70%)	+++ (Degradation > 70%)			
O=C1CCN(c2ccc(N3CCC4(CCN(C(=O)C56CC(Nc7ncc8c(n7)-c7ccc(Cl)cc7C(c7c(F)cccc7F)=NC8)(C5)C6)CC4)CC3)nc2)C(=O)N1 [Compound A265]	< 1000 nM	+ (Degradation ≤ 30%)	+ (Degradation ≤ 30%)			
O=C1CCN(c2ccc(N3CC(N4CCN(Cc5ccc(Nc6ncc7c(n6)-c6ccc(Cl)cc6C(c6c(F)cccc6F)=NC7)cc5)C(=O)C4)C3)nc2)C(=O)N1 [Compound A267]				< 1000 nM	++ (key: +: Degradation ≤ 30%; ++: 30% < Degradation ≤ 70%; +++: Degradation > 70%)	+++ (key: +: Degradation ≤ 30%; ++: 30% < Degradation ≤ 70%; +++: Degradation > 70%)
CP(C)(=O)c1ccc2c(c1)C(c1c(F)cccc1F)=NCc1cnc(Nc3ccc(N4CCN(C5CCN(c6ccc(N7CCC(=O)NC7=O)cn6)CC5)CC4=O)cc3)nc1-2 [Compound A268]	1000 to 10000 nM	+++ (Degradation > 70%)	+++ (Degradation > 70%)			
CP(C)(=O)c1ccc2c(c1)C(c1c(F)cccc1F)=NCc1cnc(Nc3ccc(N4CC(CN5CCN(c6ccc(N7CCC(=O)NC7=O)cn6)CC5)C4)cc3)nc1-2 [Compound A269]	1000 to 10000 nM	+++ (Degradation > 70%)	+++ (Degradation > 70%)			
O=C1CCN(c2ccc(N3CCC(C(=O)N4CCN(C56CC(Nc7ncc8c(n7)-c7ccc(Cl)cc7C(c7c(F)cccc7F)=NC8)(C5)C6)C(=O)C4)CC3)nc2)C(=O)N1 [Compound A270]	< 1000 nM	+++ (Degradation > 70%)	+++ (Degradation > 70%)			
O=C1CCN(c2ccc(N3CCC(C4CCN(c5ccc(Nc6ncc7c(n6)-c6ccc(Cl)cc6C(c6c(F)cccc6F)=NC7)cc5)CC4)CC3)nc2)C(=O)N1 [Compound A271]	< 1000 nM	++ (30% < Degradation ≤ 70%)	+++ (Degradation > 70%)			
O=C1CCN(c2ccc(N3CCC(F)(CN4CCN(C56CC(Nc7ncc8c(n7)-c7ccc(Cl)cc7C(c7c(F)cccc7F)=NC8)(C5)C6)C(=O)C4)CC3)nc2)C(=O)N1 [Compound A272]				< 1000 nM	+++ (key: +: Degradation ≤ 30%; ++: 30% < Degradation ≤ 70%; +++: Degradation > 70%)	+++ (key: +: Degradation ≤ 30%; ++: 30% < Degradation ≤ 70%; +++: Degradation > 70%)
O=C1CCN(c2ccc(N3CCC(C4CCN(C(=O)C56CC(Nc7ncc8c(n7)-c7ccc(Cl)cc7C(c7c(F)cccc7F)=NC8)(C5)C6)CC4)CC3)nc2)C(=O)N1 [Compound A273]	< 1000 nM	+++ (Degradation > 70%)	+++ (Degradation > 70%)			
O=C1CCN(c2ccc(N3CC(C(=O)N4CCN(c5ccc(Nc6ncc7c(n6)-c6ccc(Cl)cc6C(c6c(F)cccc6F)=NC7)cc5)CC4)C3)nc2)C(=O)N1 [Compound A274]	< 1000 nM	+++ (Degradation > 70%)	+++ (Degradation > 70%)			

— patent publication EP4818168A1, “FUSED RING COMPOUND, PHARMACEUTICAL COMPOSITION THEREOF AND USE THEREOF” (priority 2023, dated 2025)
